# Assay results reported in US8450374B2, “Pan-antagonists for the androgen receptor and androgen receptor mutants associated with anti-androgen withdrawal” (priority 2009, dated 2013).
# Positions count from the first letter of the chain named.
# Key:
# AR W741C = biological target: T1, AR W741C (Homo sapiens, UniProt P10275, W742C); experiment: Competitive binding assay, [3H]DHT, transfected COS-7 cells, AR W741C; parameters: expressed in transfected cells; host or cells: COS-7; conditions: 75 nM [3H]-DHT, read-out: Binding affinity (Ki), AR W741C
# T1 sequence (P10275 1-920 W742C): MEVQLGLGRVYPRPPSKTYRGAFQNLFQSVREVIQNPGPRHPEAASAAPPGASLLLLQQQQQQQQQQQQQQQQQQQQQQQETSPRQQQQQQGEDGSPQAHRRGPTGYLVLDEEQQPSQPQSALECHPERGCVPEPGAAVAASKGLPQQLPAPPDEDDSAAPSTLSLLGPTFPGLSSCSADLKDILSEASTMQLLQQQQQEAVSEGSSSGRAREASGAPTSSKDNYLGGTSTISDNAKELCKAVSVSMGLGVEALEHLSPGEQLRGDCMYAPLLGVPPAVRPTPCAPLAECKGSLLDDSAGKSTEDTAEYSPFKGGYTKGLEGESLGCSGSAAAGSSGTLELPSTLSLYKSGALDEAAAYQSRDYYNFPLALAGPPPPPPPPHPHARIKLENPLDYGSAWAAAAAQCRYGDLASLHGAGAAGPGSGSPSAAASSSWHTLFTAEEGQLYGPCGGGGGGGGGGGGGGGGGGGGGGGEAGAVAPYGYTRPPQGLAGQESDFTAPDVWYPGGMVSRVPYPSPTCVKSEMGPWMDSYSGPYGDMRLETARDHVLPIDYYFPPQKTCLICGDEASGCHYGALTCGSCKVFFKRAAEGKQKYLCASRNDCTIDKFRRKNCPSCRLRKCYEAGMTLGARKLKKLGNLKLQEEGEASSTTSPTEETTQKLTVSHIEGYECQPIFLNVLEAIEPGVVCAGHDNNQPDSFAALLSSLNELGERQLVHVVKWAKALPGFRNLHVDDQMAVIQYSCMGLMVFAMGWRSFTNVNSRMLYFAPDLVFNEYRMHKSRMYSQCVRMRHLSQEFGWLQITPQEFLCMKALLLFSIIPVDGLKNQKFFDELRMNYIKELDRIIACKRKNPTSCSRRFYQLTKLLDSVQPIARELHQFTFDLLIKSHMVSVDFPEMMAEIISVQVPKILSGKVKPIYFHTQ
# Protocol: (§1) Twenty-four hours prior to transfection, COS-7 cells were seeded at a density of 70,000 cells per well in 24-well cell culture plates and grown in phenol red free Dulbecco's Modified Eagle Medium (DMEM) supplement with 10% cosmic calf serum (CCS). The cells were transfected with a prokaryotic expression vector encoding the wild-type androgen receptor or mutant androgen receptor using Lipofectamine (Invitrogen) following manufacturer's protocol. […] Cells were washed with PBS and harvested in 2% SDS, 10% glycerol, and 10 mM Tris, pH 6.8, and radioactivity determined by scintillation counting.
# AR wt [1] = biological target: T2, AR wt (Homo sapiens, UniProt P10275); experiment: Transcription assay (ARE-luciferase reporter) in CV-1 cells, wild-type AR; assay type: cell-based; parameters: expressed in transfected cells; host or cells: CV-1; conditions: for Antagonist efficacy (RLU value at IC50), AR wt: in competition with 3 nM DHT, normalized to 10 nM DHT in hAR(wt)
# T2 sequence (P10275 1-920): T1 sequence (P10275 1-920 W742C) with C742W
# Protocol: Twenty-four hours prior to transfection, CV-1 cells were seeded at a density of 45,000 cells per well in 24-well cell culture plates and grown in phenol red free Dulbecco's Modified Eagle Medium (DMEM) supplemented with 10% cosmic calf serum (COS). ARE-luciferase reporter and Renilla-Luc as the internal standard and a prokaryotic expression vector encoding the wild-type androgen receptor or mutant androgen receptor were transfected with Lipofectamine (Invitrogen) following manufacturer's protocol. Five hours after transfection, media was added containing the appropriate concentrations of ligands. The cells were allowed to incubate for 38 hours before harvesting by passive lysis buffer. Cell extracts were immediately assayed using the Dual Luciferase Assay (Promega) with a Perkin-Elmer Microbeta Luminometer. […] Dose-response data was analyzed by nonlinear regression analysis using GraphPad Prism.
# AR wt [2] = biological target: T2, AR wt; experiment: Competitive binding assay, [3H]DHT, transfected COS-7 cells, wild-type AR; parameters: expressed in transfected cells; host or cells: COS-7; conditions: 8 nM [3H]-DHT, read-out: Binding affinity (Ki), AR wt
# Protocol: as §1
Structure (SMILES),Ki (AR W741C) [nM],IC50 (AR wt [1]) [nM],"Antagonist efficacy (RLU value at IC50), AR wt (AR wt [1])",Ki (AR wt [2]) [nM]
CN(C)CCCOc1cccc(Cc2ccccc2S(=O)(=O)CC(C)(O)C(=O)Nc2ccc(C#N)c(C(F)(F)F)c2)c1 (centres unmarked) [PAN22],9800,2000 ± 2200,(50% ± 30%),2300
"CC(O)(CS(=O)(=O)c1ccccc1-c1ccccc1O)C(=O)Nc1ccc(C#N)c(C(F)(F)F)c1 (centres unmarked) [PAN41, N-(4-cyano-3-(trifluoromethyl)phenyl)-2-hydroxy-3-(2′-hydroxybiphenyl-2-ylsulfonyl)-2-methylpropanamide]",,1200 ± 500,(45% ± 14%),
CN(C)CCCOc1cccc(-c2ccccc2S(=O)(=O)CC(C)(O)C(=O)Nc2ccc(C#N)c(C(F)(F)F)c2)c1 (centres unmarked) [PAN52],7300,3500 ± 2000,(49% ± 4.4%),3000
CN(C)CCCOc1ccc(-c2ccccc2S(=O)(=O)CC(C)(O)C(=O)Nc2ccc(C#N)c(C(F)(F)F)c2)cc1 (centres unmarked) [PAN62],2620,2300 ± 900,(51% ± 9.1%),25000
